Data published in US20040224958A1, “Pyridopyrimidinone derivatives for treatment of neurodegenerative disease” (priority 2000, published 2004).
Read-outs that look alike come from different tables or passages of the source.

Experiments:
cdk2/cyclinA = cdk2/cyclinA (Homo sapiens, UniProt P24941); assay: Cyclin-Dependent Kinase Assay cdk2/cyclinA
cdk2/cyclinE = cdk2/cyclinE (Homo sapiens, UniProt P24941); assay: Cyclin-Dependent Kinase Assay cdk2/cyclinE
cdc2/cyclinB = cdc2/cyclinB (Homo sapiens, UniProt P06493); assay: Cyclin-Dependent Kinase Assay cdc2/cyclinB
Chain of cdc2/cyclinB (P06493 whole entry): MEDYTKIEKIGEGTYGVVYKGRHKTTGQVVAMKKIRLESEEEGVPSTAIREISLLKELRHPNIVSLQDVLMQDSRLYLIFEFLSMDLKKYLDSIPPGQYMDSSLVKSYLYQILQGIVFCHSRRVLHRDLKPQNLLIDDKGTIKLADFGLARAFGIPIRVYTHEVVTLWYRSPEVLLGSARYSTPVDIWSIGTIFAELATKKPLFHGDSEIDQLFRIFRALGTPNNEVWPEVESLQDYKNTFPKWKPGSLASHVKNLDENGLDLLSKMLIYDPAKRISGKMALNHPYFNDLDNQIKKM
Chain of cdc2/cyclinB (P14635 whole entry, further chain): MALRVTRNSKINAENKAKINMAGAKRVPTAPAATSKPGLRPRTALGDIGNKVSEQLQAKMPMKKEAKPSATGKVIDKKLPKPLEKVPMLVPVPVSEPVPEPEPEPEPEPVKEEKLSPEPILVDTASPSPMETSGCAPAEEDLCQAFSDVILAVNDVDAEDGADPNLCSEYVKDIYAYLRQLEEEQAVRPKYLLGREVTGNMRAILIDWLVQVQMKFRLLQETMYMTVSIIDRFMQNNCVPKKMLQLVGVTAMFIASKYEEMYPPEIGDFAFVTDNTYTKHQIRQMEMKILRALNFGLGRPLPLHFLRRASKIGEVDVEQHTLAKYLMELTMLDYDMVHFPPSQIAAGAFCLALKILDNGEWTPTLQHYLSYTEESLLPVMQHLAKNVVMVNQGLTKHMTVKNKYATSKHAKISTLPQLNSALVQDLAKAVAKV

Cdk5/p25 = Cdk5/p25 (Homo sapiens, UniProt Q00535); assay: Cyclin-Dependent Kinase 5 High Throughput Screening (cdk5-HTS) Assay; format: biochemical; settings: high throughput screen
How it was run: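 Cdk5/p25 (1.0 μg/mL) phosphorylates GST-RbCOOH (20 μg/mL) in 50 mM Tris pH 7.4 with 10 mM MgCl2 and 20 μM ATP spiked with [γ33P]ATP, 30 min at room temperature. After EDTA stop, substrate captured on glutathione-coated plates; 33P incorporation counted by scintillation; IC50 determined.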

cdk4/D = cdk4/D (Homo sapiens, UniProt P11802); assay: Cyclin-Dependent Kinase 4 (cdk4) Assay; format: biochemical; settings: read-out: cdk4/D IC50
Chain of cdk4/D (P11802 whole entry): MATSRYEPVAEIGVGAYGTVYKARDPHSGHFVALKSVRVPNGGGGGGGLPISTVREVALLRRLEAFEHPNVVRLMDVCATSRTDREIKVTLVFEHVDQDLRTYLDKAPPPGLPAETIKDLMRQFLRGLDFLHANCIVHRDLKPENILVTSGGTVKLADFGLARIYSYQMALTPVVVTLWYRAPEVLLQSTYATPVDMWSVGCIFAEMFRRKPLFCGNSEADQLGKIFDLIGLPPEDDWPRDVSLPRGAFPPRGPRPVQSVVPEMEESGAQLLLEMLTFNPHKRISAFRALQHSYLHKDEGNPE
Chain of cdk4/D (P24385 whole entry, further chain): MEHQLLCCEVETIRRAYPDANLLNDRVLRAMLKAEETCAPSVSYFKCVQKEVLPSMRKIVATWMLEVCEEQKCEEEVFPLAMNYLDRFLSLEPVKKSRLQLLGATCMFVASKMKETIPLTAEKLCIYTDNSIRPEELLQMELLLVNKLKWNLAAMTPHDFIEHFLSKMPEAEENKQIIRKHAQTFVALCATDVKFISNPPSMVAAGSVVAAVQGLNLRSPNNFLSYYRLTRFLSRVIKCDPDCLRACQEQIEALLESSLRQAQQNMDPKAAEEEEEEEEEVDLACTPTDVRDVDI

Compound	IC50 (Cdk5/p25) [µM]	IC50 (cdk4/D) [µM]	IC50 (cdk2/cyclinA; cdk2/A IC50) [µM]	IC50 (cdk2/cyclinE; cdk2/E IC50) [µM]	IC50 (cdc2/cyclinB) [µM]	IC50 (cdk2/cyclinA; read-out: cdk2/A IC50) [µM]	IC50 (cdk2/cyclinE; read-out: cdk2/E IC50) [µM]	IC50 (cdc2/cyclinB; read-out: cdk1/B IC50) [µM]
8-Cyclopentyl-2-(3-fluoro-4-methoxy-phenylamino)-8H-pyrido[2,3-d]pyrimidin-7-one [Example 542]	0.0077	0.0095	–	–	–	0.075	0.035	0.085
CCC(C)n1c(=O)ccc2cnc(Nc3ccc(F)c([N+](=O)[O-])c3)nc21 (centres unmarked) [Example 475, 8-sec-Butyl-2-(4-fluoro-3-nitro-phenylamino)-8H-pyrido[2,3-d]pyrimidin-7-one]	0.48	1.4	1.5	0.82	1.1	–	–	–
CCCCn1c(=O)ccc2cnc(Nc3ccc(Br)c(C(F)(F)F)c3)nc21 [Example 374, 2-(4-Bromo-3-trifluoromethyl-phenylamino)-8-butyl-8H-pyrido[2,3-d]pyrimidin-7-one]	0.379	2.94	2.88	0.668	0.949	–	–	–
Cn1c(=O)ccc2cnc(Nc3ccc4[nH]ccc4c3)nc21 [Example 614, 2-(1H-Indol-5-ylamino)-8-methyl-8H-pyrido[2,3-d]pyrimidin-7-one]	0.615	1.35	2	0.917	1.43	–	–	–
O=c1ccc2cnc(Nc3ccc(O)cc3F)nc2n1CC1CC1 [Example 566, 8-Cyclopropylmethyl-2-(2-fluoro-4-hydroxy-phenylamino)-8H-pyrido[2,3-d]pyrimidin-7-one]	0.255	0.855	0.615	0.187	0.445	–	–	–
CCC(C)n1c(=O)ccc2cnc(Nc3ccc4[nH]nnc4c3)nc21 (centres unmarked) [Example 449, 2-(1H-Benzotriazol-5-ylamino)-8-sec-butyl-8H-pyrido[2,3-d]pyrimidin-7-one]	0.0078	0.129	0.041	0.0173	0.0775	–	–	–
Cc1cc(Nc2ncc3ccc(=O)n(C(C)C)c3n2)ccc1F [Example 408, 2-(4-Fluoro-3-methyl-phenylamino)-8-isopropyl-8H1-pyrido[2,3-d]pyrimidin-7-one]	0.013	0.13	0.15	0.11	0.19	–	–	–
CCC(CC)n1c(=O)ccc2cnc(Nc3ccc(NC(=O)OC(C)(C)C)cc3)nc21 [Example 494, {4-[8-(1-Ethyl-propyl)-7-oxo-7,8-dihydro-pyrido[2,3-d]pyrimidin-2-ylamino]-phenyl}-carbamic acid tert-butyl ester]	0.072	0.23	0.44	0.127	0.102	–	–	–
CCCCn1c(=O)ccc2cnc(Nc3ccc(O)cc3F)nc21 [Example 382, 8-Butyl-2-(2-fluoro-4-hydroxy-phenylamino)-8H-pyrido[2,3-d]pyrimidin-7-one]	0.59	0.67	1.55	0.32	1.3	–	–	–
CC(C)n1c(=O)ccc2cnc(Nc3ccc(S(N)(=O)=O)cc3)nc21 [Example 418, 4-(8-Isopropyl-7-oxo-7,8-dihydro-pyrido[2,3-d]pyrimidin-2-ylamino)-benzenesulfonamide]	0.015	0.13	0.033	0.027	0.09	–	–	–
O=c1ccc2cnc(Nc3cc([N+](=O)[O-])ccc3F)nc2n1CC1CC1 [Example 572, 8-Cyclopropylmethyl-2-(2-fluoro-5-nitro-phenylamino)-8H-pyrido[2,3-d]pyrimidin-7-one]	0.19	0.12	0.53	0.084	0.43	–	–	–
CCCn1c(=O)ccc2cnc(Nc3ccc([N+](=O)[O-])cc3F)nc21 [Example 320, 2-(2-Fluoro-4-nitro-phenylamino)-8-propyl-8H-pyrido[2,3-d]pyrimidin-7-one]	0.375	1.65	2.64	0.451	0.669	–	–	–
O=c1ccc2cnc(Nc3ccc(Cl)c(Cl)c3)nc2n1C1CCCC1 [Example 532, 8-Cyclopentyl-2-(3,4-dichloro-phenylamino)-8H-pyrido[2,3-d]pyrimidin-7-one]	0.21	1.5	0.78	0.63	0.51	–	–	–
CCn1c(=O)ccc2cnc(Nc3ccc(NC(=O)OC(C)(C)C)cc3)nc21 [Example 288, [4-(8-Ethyl-7-oxo-7,8-dihydro-pyrido[2,3-d]pyrimidin-2-ylamino)-phenyl]-carbamic acid tert-butyl ester]	0.295	0.965	1.25	1.06	0.485	–	–	–

More lines, in order of falling IC50 (Cdk5/p25), values ahead:

IC50 (Cdk5/p25) [µM]	IC50 (cdk4/D) [µM]	IC50 (cdk2/cyclinA; cdk2/A IC50) [µM]	IC50 (cdk2/cyclinE; cdk2/E IC50) [µM]	IC50 (cdc2/cyclinB) [µM]	Compound	IC50 (cdk2/cyclinA; read-out: cdk2/A IC50) [µM]	IC50 (cdk2/cyclinE; read-out: cdk2/E IC50) [µM]	IC50 (cdc2/cyclinB; read-out: cdk1/B IC50) [µM]
0.648	3.64	3.16	1.11	1.24	CCCn1c(=O)ccc2cnc(Nc3ccc(F)cc3F)nc21 [Example 321, 2-(2,4-Difluoro-phenylamino)-8-propyl-8H-pyrido[2,3-d]pyrimidin-7-one]	–	–	–
0.23	0.54	0.33	0.28	0.33	O=c1ccc2cnc(Nc3cc(F)cc(F)c3)nc2n1CC1CC1 [Example 575, 8-Cyclopropylmethyl-2-(3,5-difluoro-phenylamino)-8H-pyrido[2,3-d]pyrimidin-7-one]	–	–	–
0.18	0.25	2	0.66	0.3	CCC(C)n1c(=O)ccc2cnc(Nc3cc(OC)cc(C(F)(F)F)c3)nc21 (centres unmarked) [Example 463, 8-sec-Butyl-2-(3-methoxy-5-trifluoromethyl-phenylamino)-8H-pyrido[2,3-d]pyrimidin-7-one]	–	–	–
0.11	0.31	0.69	0.1	0.2	CCCCn1c(=O)ccc2cnc(Nc3ccc(Cl)c(C)c3)nc21 [Example 388, 8-Butyl-2-(4-chloro-3-methyl-phenylamino)-8H-pyrido[2,3-d]pyrimidin-7-one]	–	–	–
0.083	2.2	0.12	0.056	0.039	CCC(CC)n1c(=O)ccc2cnc(Nc3cccc(O)c3)nc21 [Example 512, 8-(1-Ethyl-propyl)-2-(3-hydroxy-phenylamino)-8H-pyrido[2,3-d]pyrimidin-7-one]	–	–	–
0.074	2.4	1.7	0.12	0.32	CCCn1c(=O)ccc2cnc(Nc3ccc(OC)c(O)c3)nc21 [Example 336, 2-(3-Hydroxy-4-methoxy-phenylamino)-8-propyl-8H-pyrido[2,3-d]pyrimidin-7-one]	–	–	–
0.068	0.17	0.2	0.047	0.0495	CCC(CC)n1c(=O)ccc2cnc(Nc3cccc([N+](=O)[O-])c3)nc21 [Example 498, 8-(1-Ethyl-propyl)-2-(3-nitro-phenylamino)-8H-pyrido[2,3-d]pyrimidin-7-one]	–	–	–
0.06	0.15	0.42	0.39	0.54	CC(=O)N(C)c1ccc(Nc2ncc3ccc(=O)n(C(C)C)c3n2)cc1 [Example 432, N-[4-(8-Isopropyl-7-oxo-7,8-dihydro-pyrido[2,3-d]pyrimidin-2-ylamino)-phenyl]-N-methyl-acetamide]	–	–	–
0.052	0.505	0.117	0.05	0.0945	O=c1ccc2cnc(Nc3ccc4[nH]nnc4c3)nc2n1CC1CC1 [Example 564, 2-(1H-Benzotriazol-5-ylamino)-8-cyclopropylmethyl-8H-pyrido[2,3-d]pyrimidin-7-one]	–	–	–
0.0465	0.14	0.084	0.0273	0.043	CCCCn1c(=O)ccc2cnc(Nc3ccc4[nH]ncc4c3)nc21 [Example 379, 8-Butyl-2-(1H-indazol-5-ylamino)-8H-pyrido[2,3-d]pyrimidin-7-one]	–	–	–
0.0395	0.165	0.126	0.0387	1.44	CCCn1c(=O)ccc2cnc(Nc3ccc4[nH]nnc4c3)nc21 [Example 325, 2-(1H-Benzotriazol-5-ylamino)-8-propyl-8H-pyrido[2,3-d]pyrimidin-7-one]	–	–	–
0.031	0.189	0.067	0.025	0.053	CCCn1c(=O)ccc2cnc(Nc3ccc(O)c(Cl)c3)nc21 [Example 327, 2-(3-Chloro-4-hydroxy-phenylamino)-8-propyl-8H-pyrido[2,3-d]pyrimidin-7-one]	–	–	–
0.025	0.055	0.31	0.14	0.18	Cc1ccc(Nc2ncc3ccc(=O)n(C4CCCC4)c3n2)cc1Cl [Example 545, 2-(3-Chloro-4-methyl-phenylamino)-8-cyclopentyl-8H-pyrido[2,3-d]pyrimidin-7-one]	–	–	–
0.0096	0.03	0.24	0.046	0.09	CCC(C)n1c(=O)ccc2cnc(Nc3cccc(S(N)(=O)=O)c3)nc21 (centres unmarked) [Example 469, 3-(8-sec-Butyl-7-oxo-7,8-dihydro-pyrido[2,3-d]pyrimidin-2-ylamino)-benzenesulfonamide]	–	–	–
